The supplement of paper PMC10307832

What was measured:
Assay in all cases: relative viability (nuclei count vs DMSO), 5 days (fraction); higher = more cells survive
IPA-3 + Tozasertib = compound: C1=CC=C2C(=C1)C=CC(=C2SSC3=C(C=CC4=CC=CC=C43)O)O [IPA-3] + Cc1cc(Nc2cc(N3CCN(C)CC3)nc(Sc3ccc(NC(=O)C4CC4)cc3)n2)n[nH]1 [Tozasertib] (partner 0.1 µM)
Summary of the method: (§1)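 Lung cancer cell lines in 1536-well plates were dosed by pin tool the day after seeding, either with one drug alone or with a fixed anchor-drug dose plus five library-drug doses (not always all listed) in √10 steps. After 5 days, cells were fixed and their nuclei stained in one step (final 0.05% Triton X-100, 1% formaldehyde, 1 ug/ml Hoechst), then counted on 4× images. Relative viability is the nuclei count in treated wells divided by that in vehicle wells. Values are medians of duplicate plates.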

Doramapimod + Dasatinib = compound: Cc1ccc(-n2nc(C(C)(C)C)cc2NC(=O)Nc2ccc(OCCN3CCOCC3)c3ccccc23)cc1 [Doramapimod] + Cc1nc(Nc2ncc(C(=O)Nc3c(C)cccc3Cl)s2)cc(N2CCN(CCO)CC2)n1 [Dasatinib] (partner 0.075 µM)
Summary of the method: as §1

Doramapimod + Decitabine = compound: Cc1ccc(-n2nc(C(C)(C)C)cc2NC(=O)Nc2ccc(OCCN3CCOCC3)c3ccccc23)cc1 [Doramapimod] + Nc1ncn([C@H]2C[C@H](O)[C@@H](CO)O2)c(=O)n1 [Decitabine] (partner 2 µM)
Summary of the method: as §1

RAF265 + Foretinib = compound: Cn1c(Nc2ccc(C(F)(F)F)cc2)nc2cc(Oc3ccnc(-c4ncc(C(F)(F)F)[nH]4)c3)ccc21 [RAF265] + COc1cc2c(Oc3ccc(NC(=O)C4(C(=O)Nc5ccc(F)cc5)CC4)cc3F)ccnc2cc1OCCCN1CCOCC1 [Foretinib] (partner 0.25 µM)
Summary of the method: as §1

UMC-11 gave a relative viability (IPA-3 + Tozasertib; first compound 0.2 µM) of 0.202, a relative viability (IPA-3 + Tozasertib; first compound 0.6325 µM) of 0.205 and a relative viability (IPA-3 + Tozasertib; first compound 2 µM) of 0.215. It also gave a relative viability (IPA-3 + Tozasertib; first compound 6.325 µM) of 0.224, a relative viability (IPA-3 + Tozasertib; first compound 20 µM) of 0.225 and a relative viability (Doramapimod + Dasatinib; first compound 0.02 µM) of 0.435. It also gave a relative viability (Doramapimod + Dasatinib; first compound 0.06325 µM) of 0.447, a relative viability (Doramapimod + Dasatinib; first compound 0.2 µM) of 0.46 and a relative viability (Doramapimod + Dasatinib; first compound 0.6325 µM) of 0.52. For the same cell line, the relative viability (Doramapimod + Dasatinib; first compound 2 µM) was 0.368, the relative viability (Doramapimod + Decitabine; first compound 0.02 µM) was 0.65 and the relative viability (Doramapimod + Decitabine; first compound 0.06325 µM) was 0.584. The relative viability (Doramapimod + Decitabine; first compound 0.2 µM) was 0.646, the relative viability (Doramapimod + Decitabine; first compound 0.6325 µM) was 0.723 and the relative viability (Doramapimod + Decitabine; first compound 2 µM) was 0.419. For the same cell line, the relative viability (RAF265 + Foretinib; first compound 0.01 µM) was 1.02, the relative viability (RAF265 + Foretinib; first compound 0.03162 µM) was 1.05 and the relative viability (RAF265 + Foretinib; first compound 0.1 µM) was 0.972. The relative viability (RAF265 + Foretinib; first compound 0.3162 µM) was 0.992 and the relative viability (RAF265 + Foretinib; first compound 1 µM) was 0.926.
